Assay results taken from patent publication US12723063B2, “GIPR-agonist compounds” (Eli Lilly and Company, priority 2019, dated 2026).
*1 amine or outer side, *2 acyl side, *3 side chain or, on linkers, in order; H or OH if unused. Where a SMILES comes first, the peptide text is derived from it. Side-chain parts run from the residue outwards. [ ]: non-standard residue; d: D form. The star is where a group is joined. C20 diacid = O=C(O)CCCCCCCCCCCCCCCCCCC(=O)*; C18 diacid = O=C(O)CCCCCCCCCCCCCCCCC(=O)*; αMePhe(2-F) = C[C@](N)(Cc1ccccc1F)C(=O)O; γGlu = O=C(O)[C@H](CCC(=O)[*:2])N[*:1]; 4Pal = N[C@@H](Cc1ccncc1)C(=O)O; αMeL = CC(C)C[C@](C)(N)C(=O)O; Orn = NCCC[C@H](N)C(=O)O; AEEA = NCCOCCOCC(=O)O; Aib = CC(C)(N)C(=O)O

Target: T1, human GcgR (Homo sapiens, UniProt P47871)
T1 construct: expressed in transfected cells; crude membranes
Assay: [125I]-Glucagon binding, SPA with WGA beads, 0.1% bacitracin
Conditions: geometric mean, read-out: hGcgR Ki
Method: Stably transfected cell lines are prepared by subcloning receptor cDNA into a pcDNA3 expression plasmid and transfected into human embryonic kidney (HEK) 293 (hGcgR and hGLP-1R) or Chinese Hamster Ovary (CHO) (hGIPR) cells followed by selection with Geneticin (hGLP-1R and hGIPR) or hygromycin B (hGcgR).
Two methods are used for the preparation of crude cell membranes.
Method 1: Frozen cell pellets are lysed on ice in hypotonic buffer containing 50 mM Tris HCl, pH 7.5, and Roche Complete™ Protease Inhibitors with EDTA. The cell suspension is disrupted using a glass Potter-Elvehjem homogenizer fitted with a Teflon® pestle for 25 strokes. The homogenate is centrifuged at 4° C. at 1100× g for 10 minutes. The supernatant is collected and stored on ice while the pellets are resuspended in homogenization buffer and rehomogenized as described above. The homogenate is centrifuged at 1100× g for 10 minutes. The second supernatant is combined with the first supernatant and centrifuged at 35000× g for 1 hour at 4° C. The resulting membrane pellet is resuspended in homogenization buffer containing protease inhibitors at approximately 1 to 3 mg/mL, quick frozen in liquid nitrogen and stored as aliquots in a −80° C. freezer until use.
Method 2: Frozen cell pellets are lysed on ice in hypotonic buffer containing 50 mM Tris HCl, pH 7.5, 1 mM MgCl2, Roche Complete™ EDTA-free Protease Inhibitors and 25 units/mL DNAse I (Invitrogen). The cell suspension is disrupted using a glass Potter-Elvehjem homogenizer fitted with a Teflon® pestle for 20 to 25 strokes. The homogenate is centrifuged at 4° C. at 1800× g for 15 minutes. The supernatant is collected and stored on ice while the pellets are resuspended in homogenization buffer (without DNAse I) and rehomogenized as described above. The homogenate is centrifuged at 1800× g for 15 minutes. The second supernatant is combined with the first supernatant and centrifuged an additional time at 1800× g for 15 minutes. The overall supernatant is then centrifuged at 25000× g for 30 minutes at 4° C. The resulting membrane pellet is resuspended in homogenization buffer (without DNAse I) containing protease inhibitors at approximately 1 to 3 mg/mL and stored as aliquots in a −80° C. freezer until use.
The human Geg receptor binding assays are performed using a Scintillation Proximity Assay (SPA) format with wheat germ agglutinin (WGA) beads (Perkin Elmer). The binding buffer contains 25 mM 4-(2-hydroxyethyl)-1-piperazineethanesulfonic acid (HEPES), pH 7.4, 2.5 mM CaCl2), 1 mM MgCl2, 0.1% (w/v) bacitracin (Research Products), 0.003% (w/v) Polyoxyethylenesorbitan monolaurate (TWEEN®-20), and Roche Complete™ Protease Inhibitors without EDTA. Peptides and Gcg are thawed and 3-fold serially diluted in 100% DMSO (10 point concentration response curves). Next, 5 μL serially diluted compound or DMSO is transferred into Corning® 3632 clear bottom assay plates containing 45 μL assay binding buffer or unlabeled Gcg control (non-specific binding or NSB, at 1 μM final). […] Plates are sealed and mixed on a plate shaker (setting 6) for 1 minute and read with a PerkinElmer Trilux MicroBeta® scintillation counter after 12 hours of incubation/settling time at room temperature.
Data are analyzed using four-parameter (curve maximum, curve minimum, IC50, Hill slope) nonlinear regression routines (Genedata Screener, version 12.0.4, Genedata AG, Basal, Switzerland). […] Values for Ki are reported as the geometric mean, with error expressed as the standard error of the mean (SEM) and n is equal to the number of independent replicates (determined in assays performed on different days). […] SEM is only calculated when […] or greater. Means are expressed as geometric means with the standard error of the mean (SEM) and the number of replicates (n) indicated in parentheses.

T1 sequence (P47871 26-477): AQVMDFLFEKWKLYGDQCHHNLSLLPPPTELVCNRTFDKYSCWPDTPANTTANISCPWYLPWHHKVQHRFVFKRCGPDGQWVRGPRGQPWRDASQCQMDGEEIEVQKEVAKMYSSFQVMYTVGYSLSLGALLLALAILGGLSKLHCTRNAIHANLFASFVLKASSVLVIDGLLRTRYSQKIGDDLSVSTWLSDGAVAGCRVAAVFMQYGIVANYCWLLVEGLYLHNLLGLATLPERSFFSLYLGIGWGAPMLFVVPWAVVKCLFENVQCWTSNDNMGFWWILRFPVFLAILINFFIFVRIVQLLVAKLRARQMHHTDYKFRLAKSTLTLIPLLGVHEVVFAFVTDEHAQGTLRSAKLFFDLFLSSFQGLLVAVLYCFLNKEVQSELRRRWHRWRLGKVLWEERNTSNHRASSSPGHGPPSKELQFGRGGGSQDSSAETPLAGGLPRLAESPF

| SMILES | Ki |
| --- | --- |
| CC[C@H](C)[C@H](NC(=O)[C@H](CO)NC(=O)[C@H](Cc1ccc(O)cc1)NC(=O)[C@H](CC(=O)O)NC(=O)[C@H](CO)NC(=O)[C@@H](NC(=O)[C@H](Cc1ccccc1)NC(=O)[C@@H](NC(=O)CNC(=O)[C@H](CCC(=O)O)NC(=O)[C@@H](C)NC(=O)[C@@H](N)Cc1ccc(O)cc1)[C@@H](C)O)[C@@H](C)CC)C(=O)N[C@@H](CC(C)C)C(=O)N[C@@H](CC(C)C)C(=O)N[C@@H](CC(=O)O)C(=O)N[C@@H](CCCCN)C(=O)N[C@@H](CCCCNC(=O)COCCOCCNC(=O)COCCOCCNC(=O)CC[C@H](NC(=O)CCCCCCCCCCCCCCCCC(=O)O)C(=O)O)C(=O)N[C@@H](C)C(=O)N[C@@H](CCC(N)=O)C(=O)NC(C)(C)C(=O)N[C@@H](CCC(=O)O)C(=O)N[C@@H](Cc1ccccc1)C(=O)N[C@H](C(=O)N[C@@H](CCC(N)=O)C(=O)N[C@@H](Cc1c[nH]c2ccccc12)C(=O)N[C@@H](CC(C)C)C(=O)N[C@@H](CC(C)C)C(=O)N[C@@H](C)C(=O)NCC(=O)NCC(=O)N1CCC[C@H]1C(=O)N[C@@H](CO)C(=O)N[C@@H](CO)C(=O)NCC(=O)N[C@@H](C)C(=O)N1CCC[C@H]1C(=O)N1CCC[C@H]1C(=O)N1CCC[C@H]1C(=O)N[C@@H](CO)C(N)=O)C(C)C [Example 27] (H-Y[dA]EGTFISDYSILLDKK([AEEA-AEEA-γGlu-C18 diacid])AQ[Aib]EFVQWLLAGGPSSGAPPPS-NH2) | 401 nM |
| CC[C@H](C)[C@H](NC(=O)[C@H](CO)NC(=O)[C@H](Cc1ccc(O)cc1)NC(=O)[C@H](CC(=O)O)NC(=O)[C@H](CO)NC(=O)[C@@H](NC(=O)[C@H](Cc1ccccc1)NC(=O)[C@@H](NC(=O)CNC(=O)[C@H](CCC(=O)O)NC(=O)[C@@H](C)NC(=O)[C@@H](N)Cc1ccc(O)cc1)[C@@H](C)O)[C@@H](C)CC)C(=O)N[C@@H](CC(C)C)C(=O)N[C@@H](CC(C)C)C(=O)N[C@@H](CC(=O)O)C(=O)N[C@@H](CCCCN)C(=O)N[C@@H](CCCCNC(=O)COCCOCCNC(=O)COCCOCCNC(=O)CC[C@H](NC(=O)CCCCCCCCCCCCCCCCCCC(=O)O)C(=O)O)C(=O)N[C@@H](Cc1c[nH]cn1)C(=O)N[C@@H](CCC(N)=O)C(=O)N[C@@H](CCC(N)=O)C(=O)N[C@@H](CCC(=O)O)C(=O)N[C@@H](Cc1ccccc1)C(=O)N[C@H](C(=O)N[C@@H](CC(N)=O)C(=O)N[C@@H](Cc1c[nH]c2ccccc12)C(=O)N[C@@H](CC(C)C)C(=O)N[C@@H](CC(C)C)C(=O)N[C@@H](C)C(=O)N[C@@H](CCC(N)=O)C(=O)NCC(=O)N1CCC[C@H]1C(=O)N[C@@H](CO)C(=O)N[C@@H](CO)C(=O)NCC(=O)N[C@@H](C)C(=O)N1CCC[C@H]1C(=O)N1CCC[C@H]1C(=O)N1CCC[C@H]1C(=O)N[C@@H](CO)C(N)=O)C(C)C [Example 13] (H-Y[dA]EGTFISDYSILLDKK([AEEA-AEEA-γGlu-C20 diacid])HQQEFVNWLLAQGPSSGAPPPS-NH2) | > 230 nM |
| CC[C@H](C)[C@H](NC(=O)[C@H](CO)NC(=O)[C@H](Cc1ccc(O)cc1)NC(=O)[C@H](CC(=O)O)NC(=O)[C@H](CO)NC(=O)[C@@H](NC(=O)[C@](C)(Cc1ccccc1F)NC(=O)[C@@H](NC(=O)CNC(=O)[C@H](CCC(=O)O)NC(=O)C(C)(C)NC(=O)[C@@H](N)Cc1ccc(O)cc1)[C@@H](C)O)[C@@H](C)CC)C(=O)N[C@@H](CC(C)C)C(=O)N[C@@H](CC(C)C)C(=O)N[C@@H](CC(=O)O)C(=O)N[C@@H](CCCCN)C(=O)N[C@H](C(=O)N[C@@H](Cc1c[nH]cn1)C(=O)N[C@@H](CCC(N)=O)C(=O)NC(C)(C)C(=O)N[C@@H](CC(=O)O)C(=O)N[C@@H](Cc1ccccc1)C(=O)N[C@H](C(=O)N[C@@H](CCC(=O)O)C(=O)N[C@@H](Cc1ccncc1)C(=O)N[C@@H](CCCCNC(=O)COCCOCCNC(=O)COCCOCCNC(=O)CC[C@H](NC(=O)CCCCCCCCCCCCCCCCCCC(=O)O)C(=O)O)C(=O)N[C@@H](CC(C)C)C(=O)N[C@@H](CCC(=O)O)C(=O)NCC(=O)NCC(=O)N1CCC[C@H]1C(=O)N[C@@H](CO)C(=O)N[C@@H](CO)C(=O)NCC(=O)N[C@@H](C)C(=O)N1CCC[C@H]1C(=O)N1CCC[C@H]1C(=O)N1CCC[C@H]1C(=O)N[C@@H](CO)C(N)=O)C(C)C)[C@@H](C)CC [Example 119] (H-Y[Aib]EGT[αMePhe(2-F)]ISDYSILLDKIHQ[Aib]DFVE[4Pal]K([AEEA-AEEA-γGlu-C20 diacid])LEGGPSSGAPPPS-NH2) | 68.8 nM |
| CC[C@H](C)[C@H](NC(=O)[C@H](CCCN)NC(=O)[C@H](CC(=O)O)NC(=O)[C@H](CC(C)C)NC(=O)[C@](C)(CC(C)C)NC(=O)[C@@H](NC(=O)[C@H](CO)NC(=O)[C@H](Cc1ccc(O)cc1)NC(=O)[C@H](CC(=O)O)NC(=O)[C@H](CO)NC(=O)[C@@H](NC(=O)[C@H](Cc1ccccc1)NC(=O)[C@@H](NC(=O)CNC(=O)[C@H](CCC(=O)O)NC(=O)C(C)(C)NC(=O)[C@@H](N)Cc1ccc(O)cc1)[C@@H](C)O)[C@@H](C)CC)[C@@H](C)CC)C(=O)N[C@@H](Cc1c[nH]cn1)C(=O)N[C@@H](CCC(N)=O)C(=O)NC(C)(C)C(=O)N[C@@H](CCC(=O)O)C(=O)N[C@@H](Cc1ccccc1)C(=O)N[C@H](C(=O)N[C@@H](CCC(=O)O)C(=O)N[C@@H](Cc1ccncc1)C(=O)N[C@@H](CCCCNC(=O)COCCOCCNC(=O)COCCOCCNC(=O)CC[C@H](NC(=O)CCCCCCCCCCCCCCCCCCC(=O)O)C(=O)O)C(=O)N[C@@H](CC(C)C)C(=O)N[C@@H](CCC(=O)O)C(=O)N[C@@H](C)C(=O)NCC(=O)N1CCC[C@H]1C(=O)N[C@@H](CO)C(=O)N[C@@H](CO)C(=O)NCC(=O)N[C@@H](C)C(=O)N1CCC[C@H]1C(=O)N1CCC[C@H]1C(=O)N1CCC[C@H]1C(=O)N[C@@H](CO)C(N)=O)C(C)C [Example 122] (H-Y[Aib]EGTFISDYSI[αMeL]LD[Orn]IHQ[Aib]EFVE[4Pal]K([AEEA-AEEA-γGlu-C20 diacid])LEAGPSSGAPPPS-NH2) | 957 nM |
| CC[C@H](C)[C@H](NC(=O)[C@H](Cc1ccccc1)NC(=O)[C@@H](NC(=O)CNC(=O)[C@H](CCC(=O)O)NC(=O)C(C)(C)NC(=O)[C@@H](N)Cc1ccc(O)cc1)[C@@H](C)O)C(=O)N[C@@H](CO)C(=O)N[C@@H](CC(=O)O)C(=O)N[C@@H](Cc1ccc(O)cc1)C(=O)N[C@@H](CO)C(=O)N[C@H](C(=O)N[C@@](C)(CC(C)C)C(=O)N[C@@H](CC(C)C)C(=O)N[C@@H](CC(=O)O)C(=O)N[C@@H](CCCCN)C(=O)N[C@@H](CCCCNC(=O)COCCOCCNC(=O)COCCOCCNC(=O)CC[C@H](NC(=O)CCCCCCCCCCCCCCCCCCC(=O)O)C(=O)O)C(=O)N[C@@H](Cc1c[nH]cn1)C(=O)N[C@@H](CCC(N)=O)C(=O)NC(C)(C)C(=O)N[C@@H](CC(=O)O)C(=O)N[C@@H](Cc1ccccc1)C(=O)N[C@H](C(=O)N[C@@H](CCC(=O)O)C(=O)N[C@@H](Cc1ccncc1)C(=O)N[C@@H](CC(C)C)C(=O)N[C@@H](CC(C)C)C(=O)N[C@@H](C)C(=O)N[C@@H](CCC(N)=O)C(=O)NCC(=O)N1CCC[C@H]1C(=O)N[C@@H](CO)C(=O)N[C@@H](CO)C(=O)NCC(=O)N[C@@H](C)C(=O)N1CCC[C@H]1C(=O)N1CCC[C@H]1C(=O)N1CCC[C@H]1C(=O)N[C@@H](CO)C(N)=O)C(C)C)[C@@H](C)CC [Example 79] (H-Y[Aib]EGTFISDYSI[αMeL]LDKK([AEEA-AEEA-γGlu-C20 diacid])HQ[Aib]DFVE[4Pal]LLAQGPSSGAPPPS-NH2) | 888 nM |
